According to US20070190145A1, “DRUG DELIVERY SYSTEMS COMPRISING WEAKLY BASIC SELECTIVE SEROTONIN 5-HT3 BLOCKING AGENT AND ORGANIC ACIDS” (EURAND, INC., priority 2006, published 2007):
Values after ≈ are worked out from the molar mass of the structure shown. Read-outs that look alike come from different tables or passages of the source.

Experiments:
[1] = physchem
[2] = pH-dependent solubility; type: physicochemical
Excerpt: Although carvedilol's solubility is similarly pH-dependent and varying, it is not obvious from FIG. 1 as it rapidly undergoes in situ salt formation with the buffering agent such as citric, acetic, and hydrochloric acids and consequently, the observed solubility is that of the salt formed in-situ.

[3] = Solubilities of weakly basic drugs in organic acid buffers
[4] = PK modeling (WinNonlin 1-compartment fit, Stella simulation) of 8 mg ondansetron hydrochloride IR tablet plasma data
Protocol: In order to assess the type of in vitro release profile needed to achieve a once-daily plasma concentration profile, a modeling exercise was performed using the pharmacokinetic parameters for ondansetron hydrochloride reported in “Ondansetron Absorption in Adults: Effect of Dosage Form, Food, and Antacids” in Journal of Pharmaceutical Sciences Vol. (1994) by Bozigian et al. Mean plasma concentrations achieved in 24 healthy, adult male volunteers, who received a single 8 mg ondansetron hydrochloride IR tablet in the fasted state, were used using the software program, WinNonlin™ Standard Version 2.1 to fit a 1-compartment first order model with a lag-time assuming first order elimination kinetics.
The primary parameters were then input into another software, Stella Version 6.01 using a previously established model with slight modifications. Different in vitro release profiles were generated, and from target once-daily release profiles, desired in vitro release (medium, target and fast) profiles were generated by deconvolution.

[5] = in vivo; cited from earlier work
[6] = single 8 mg IR tablet, fasted, 1-compartment model fit
[7] = single 8 mg IR tablet, fasted, secondary parameter

Molecule OCCN(CCO)c1nc(N2CCCCC2)c2nc(N(CCO)CCO)nc(N3CCCCC3)c2n1 [Dipyridamole] has a solubility ([1]; pH 2.98, aqueous buffer) of 6240 µg/mL (≈ 12400 µM), a solubility ([1]; pH 3.42, aqueous buffer) of 1800 µg/mL (≈ 3570 µM) and a solubility ([1]; pH 3.68, aqueous buffer) of 930 µg/mL (≈ 1840 µM). For the same molecule, the solubility ([1]; pH 3.88, aqueous buffer) was 650 µg/mL (≈ 1290 µM), the solubility ([1]; pH 4.33, aqueous buffer) was 270 µg/mL (≈ 535 µM) and the solubility ([1]; pH 4.71, aqueous buffer) was 130 µg/mL (≈ 258 µM). For the same molecule, the solubility ([1]; pH 6.28, aqueous buffer) was 6 µg/mL (≈ 11.9 µM), the solubility ([2]; aqueous buffer, at pH 6.8) was 30 µg/mL (≈ 59.4 µM) and the solubility ([2]; simulated gastric fluid, in 0.1N HCl) was roughly 1000 µg/mL (≈ 1980 µM).
Work on Cc1nccn1CC1CCc2c(c3ccccc3n2C)C1=O.Cl.O.O (racemic) [Ondansetron Hydrochloride, (±) 1,2,3,9-tetrahydro-9-methyl-3-[(2-methyl-1H-imidazole-1-yl)methyl]-4H-carbazol-4-one monohydrochloride dihydrate] yielded a solubility ([3]; pH 2.01, aqueous buffer, Solubility of Ondansetron Hydrochloride, fumaric acid 5 mg/mL, start pH 2.13, end pH 2.01) of 26900 µg/mL, a solubility ([3]; pH 2.14, aqueous buffer, Solubility of Ondansetron Hydrochloride, fumaric acid 2.5 mg/mL, start pH 2.26, end pH 2.14) of 27000 µg/mL and a solubility ([3]; pH 2.4, aqueous buffer, Solubility of Ondansetron Hydrochloride, fumaric acid 1 mg/mL, start pH 2.48, end pH 2.40) of 26100 µg/mL. It also gave a solubility ([3]; pH 2.75, aqueous buffer, Solubility of Ondansetron Hydrochloride, fumaric acid 0.25 mg/mL, start pH 2.79, end pH 2.75) of 26200 µg/mL, a solubility ([3]; pH 3.49, aqueous buffer, Solubility of Ondansetron Hydrochloride, fumaric acid 0.05 mg/mL, start pH 3.19, end pH 3.49) of 26000 µg/mL and a solubility ([3]; pH 3.49, aqueous buffer, solubility, buffer containing only 0.05 mg/mL of fumaric acid, unchanged up to 5 mg/mL) of roughly 26000 µg/mL. The solubility ([3]; pH 4.05, aqueous buffer, Solubility of Ondansetron Hydrochloride, fumaric acid 0.01 mg/mL, start pH 3.64, end pH 4.05) was 26100 µg/mL, the solubility ([3]; pH 4.33, aqueous buffer, Solubility of Ondansetron Hydrochloride, fumaric acid 0.0025 mg/mL, start pH 4.15, end pH 4.33) was 26100 µg/mL and the t1/2 ([4]; male, human, plasma) was 3.65 h. For the same molecule, the Vd ([4]; single 8 mg IR tablet, fasted, 24 healthy adult male volunteers, 1-compartment first order model fit) was 238.26, the Ka [4, 6] was 1.49 per hour and the Ke [4, 6] was 0.19 per hr. For the same molecule, the Tlag [4, 6] was 0.41 h, the AUC [4, 7] was 170 ng·h/mL and the Cl [4, 7] was 46.06 L/h. The Cm [4, 7] was 0.0248 mg/L, the Tmax [4, 7] was 1.98 h and the elimination half-life [5] was “approximately 3.8±1 hrs”. The solubility ([2]; aqueous buffer, at pH 6.8) was roughly 50 µg/mL and the “ratio of optimal highest dose (mg) to the solubility (mg/mL) at pH 6.8” value ([2]; optimal highest dose 16 or 24 mg, pH 6.8) was 320.
In the case of O=C1CN=C(c2ccccc2Cl)c2cc([N+](=O)[O-])ccc2N1 [Clonazepam], the “solubility enhancement by organic acid” value ([3]; Group C actives) is reported as “less than 3 fold”, the solubility ([3]; pH 2.3, aqueous buffer, solubility, fumaric acid buffer at pH 2.3 (higher acid concentration)) is reported as roughly 11.6 µg/mL (≈ 36.7 µM) and the solubility ([3]; pH 3.2, aqueous buffer, Solubility (mg/mL) of Clonazepam in Fumaric Acid, pH of buffer 3.2) is reported as 9.6 µg/mL (≈ 30.4 µM). The solubility ([3]; pH 3.7, aqueous buffer, Solubility (mg/mL) of Clonazepam in Fumaric Acid, pH of buffer 3.7) was 9.8 µg/mL (≈ 31 µM), the solubility ([3]; pH 4.8, aqueous buffer, Solubility (mg/mL) of Clonazepam in Fumaric Acid, pH of buffer 4.8) was 9.5 µg/mL (≈ 30.1 µM) and the solubility ([3]; pH 5.5, aqueous buffer, Solubility (mg/mL) of Clonazepam in Fumaric Acid, pH of buffer 5.5) was 9.3 µg/mL (≈ 29.5 µM). For the same molecule, the solubility ([3]; pH 6.2, aqueous buffer, Solubility (mg/mL) of Clonazepam in Fumaric Acid, pH of buffer 6.2) was 7.2 µg/mL (≈ 22.8 µM), the solubility ([3]; pH 6.8, aqueous buffer, Solubility (mg/mL) of Clonazepam in Fumaric Acid, pH of buffer 6.8) was 6.9 µg/mL (≈ 21.9 µM) and the solubility ([3]; pH 6.8, aqueous buffer, solubility, fumaric acid buffer at pH 6.8 (lower acid concentration)) was roughly 6.9 µg/mL (≈ 21.9 µM). The “Solubility (mg/mL) of Clonazepam in Fumaric Acid” value ([3]; pH of buffer 2.3) was 0.0116 mg/mL and the “Solubility (mg/mL) of Clonazepam in Fumaric Acid” value ([3]; pH of buffer 2.8) was 0.0103 mg/mL.
Molecule Nc1nnc(-c2cccc(Cl)c2Cl)c(N)n1 [Lamotrigine] has a solubility ([1]; pH 2.43, aqueous buffer) of 4480 µg/mL (≈ 17500 µM), a solubility ([1]; pH 3.33, aqueous buffer) of 1770 µg/mL (≈ 6910 µM) and a solubility ([1]; pH 4.36, aqueous buffer) of 1610 µg/mL (≈ 6290 µM). The solubility ([1]; pH 4.97, aqueous buffer) was 488 µg/mL (≈ 1910 µM), the solubility ([1]; pH 5.66, aqueous buffer) was 226 µg/mL (≈ 882 µM) and the solubility ([1]; pH 5.85, aqueous buffer) was 197 µg/mL (≈ 769 µM). It also gave a solubility ([1]; pH 6.5, aqueous buffer) of 161 µg/mL (≈ 629 µM).
In the case of COc1ccccc1OCCNCC(O)COc1cccc2[nH]c3ccccc3c12 (racemic) [Carvedilol], the “Solubility (mg/mL) of Carvedilol in Tartaric Acid” value (shortened to “Solubility (mg/mL) of Carvedilol”) (pH 2.12) is reported as 2.51 mg/mL, the “Solubility (mg/mL) of Carvedilol” value (pH 2.28) is reported as 1.36 mg/mL and the “Solubility (mg/mL) of Carvedilol” value (pH 3.64) is reported as 0.121 mg/mL. For the same molecule, the “Solubility (mg/mL) of Carvedilol” value (pH 5.46) was 0.105 mg/mL and the “Solubility (mg/mL) of Carvedilol” value (pH 5.9) was 0.028 mg/mL.
